Results: patent US20210269483A1, “PEPTIDE COMPOUNDS” (ULTUPHARMA AB, priority 2018, published 2021)
Converted amounts (≈) assume the structure as drawn. Read-outs that look alike come from different tables or passages of the source. Starred links: 1 amine or outer side, 2 acyl side, 3 side chain; linkers in the order of their positions; H or OH if unused. Positions of bridges follow the written chain, without caps; N, C: chain ends. Non-standard residues stand in square brackets, D forms with d. Residues, ends and D or L forms follow the SMILES beside them. X3 = CC(C)CCCCCCC[C@H](CC(=O)[*:1])O[*:2]; X4 = CCCCCCC=CC[C@H](CC(=O)[*:1])O[*:2]; Val(3-OH) = CC(C)(O)[C@H](N)C(=O)O; X1 = C/C=C(/N[*:1])C(=O)[*:2]; Dab = NCC[C@H](N)C(=O)O; Dap = NC[C@H](N)C(=O)O

Assays:
[1] = test system: A. baumannii; format: cell-based, Acinetobacter baumannii
Text: (§1) 2015. M7-A10. Methods for dilution antimicrobial susceptibility tests for bacteria that grow aerobically, 10th ed. Approved standard. CLSI, Wayne, Pa.).
(§2) A) In the broth micro-dilution method, the test media were either AM3 Broth (BD Difco Ltd) mixed with phosphate buffered saline (PBS, Amresco LLC, Solon, USA) in 1:4 ratio (E. colt A. baumannii, Enterobacter cloacae, Klebsiella pneumonia and P. aeruginosa), AM3 Broth mixed with PBS in 1:1 ratio (S. aureus) or Malt Extract (ME; 15 g Malt Extract Dico Ltd. in 1000 mL deionized H2O; Aspergillus fumigatus). Prior to MIC-tests, the bacterial cell concentration/fungal spore concentration was adjusted to between 1 and 5×10^5 cells/spores per mL. […] Afterwards, suspensions of pathogen cells in the appropriate medium were dispensed to the wells of microtiter plates and the growth of pathogens were monitored after 16 to 20 h of incubation at 37° C. in the dark. Positive control comprised respective pathogen cells suspended in untreated sterile appropriate media without addition of compounds(s) and negative control comprised the medium only. The MIC was defined as the lowest concentration of each compound with no visible growth of pathogen. All MIC tests were performed in duplicate and/or triplicate and repeated at least twice.

[2] = test system: E. cloacae; format: cell-based, Enterobacter cloacae
Text: as §1, §2

[3] = test system: E. coli; format: cell-based, Escherichia coli
Text: as §1, §2

[4] = test system: K. pneumoniae; format: cell-based, Klebsiella pneumonia
Text: as §1, §2

[5] = test system: P. aeruginosa; format: cell-based, Pseudomonas aeruginosa
Text: as §1, §2

[6] = test system: S. aureus; format: cell-based, Staphylococcus aureus
Text: as §1, §2

[7] = test system: HepG2
Experimental: IC50, haemolysis rate and frequency of resistance (FoR, Table 4) was determined using standard protocols by different CROs.

[8] = method A, only lower limit of concentration range shown ("16" means "16-32")

| Compound | MIC A. baumannii LMG1041T [1] | MIC E. cloacae LMG2783T [2] | MIC E. coli LMG15862 [3] | MIC K. pneumonia LMG20218 [4] | MIC P. aeruginosa LMG6395 [5] | MIC S. aureus LMG15975 [6] | IC50 (HepG2) [7] | MIC A. baumannii LMG1041T [1, 8] | MIC E. cloacae LMG2783T [2, 8] | MIC E. coli LMG15862 [3, 8] | MIC K. pneumonia LMG20218 [4, 8] | MIC P. aeruginosa LMG6395 [5, 8] | MIC S. aureus LMG15975 [6, 8] | IC50 (HepG2) ([7]; HepG2, determined by a CRO) |
| --- | --- | --- | --- | --- | --- | --- | --- | --- | --- | --- | --- | --- | --- | --- |
| C/C=C1/NC(=O)[C@H](CCN)NC(=O)[C@H](CC(C)C)NC(=O)[C@H](CN)NC(=O)C[C@@H](CC=CCCCCCC)OC(=O)[C@H](CC(=O)O)NC(=O)[C@H](C(C)(C)O)NC(=O)[C@@H](Cc2ccccc2)NC(=O)[C@H](CN)NC(=O)[C@H]([C@@H](C)O)NC1=O [U756, cyclo-((R)-3-hydroxydodec-5-enoyl-L-DAPA-L-Leu-L-DABA-ABA-L-Thr-L-DAPA-D-Phe-L-OHVal-L-Asp)] ([Dap]L[Dab][X1]T[Dap][dF][Val(3-OH)]D; linker N-C via X4) | 1 µg/mL (≈ 0.875 µM) | 2 µg/mL (≈ 1.75 µM) | 1 µg/mL (≈ 0.875 µM) | 2 µg/mL (≈ 1.75 µM) | 4 µg/mL (≈ 3.5 µM) | 4 µg/mL (≈ 3.5 µM) |  |  |  |  |  |  |  |  |
| C/C=C1/NC(=O)[C@H](CCN)NC(=O)[C@H](CC(C)C)NC(=O)[C@H](CN)NC(=O)C[C@@H](CCCCCCCC(C)C)OC(=O)[C@H](CC(=O)O)NC(=O)[C@H](C(C)(C)O)NC(=O)[C@@H](Cc2ccccc2)NC(=O)[C@H](CN)NC(=O)[C@H]([C@@H](C)O)NC1=O [U773, cyclo-((R)-3-hydroxy-11-methyldodecanoyl-L-DAPA-L-Leu-L-DABA-ABA-L-Thr-L-DAPA-D-Phe-L-OHVal-L-Asp)] ([Dap]L[Dab][X1]T[Dap][dF][Val(3-OH)]D; linker N-C via X3) | 4 µg/mL (≈ 3.45 µM) | 8 µg/mL (≈ 6.9 µM) | 2 µg/mL (≈ 1.73 µM) | 16 µg/mL (≈ 13.8 µM) | 8 µg/mL (≈ 6.9 µM) | 16 µg/mL (≈ 13.8 µM) | 8 µg/mL (≈ 6.9 µM) |  |  |  |  |  |  |  |
| C/C=C1/NC(=O)[C@H](CCN)NC(=O)[C@H](CC(C)C)NC(=O)[C@H](CN)NC(=O)C[C@@H](CCCCCCCC(C)C)OC(=O)[C@H](CC(=O)O)NC(=O)[C@H](C(C)C)NC(=O)[C@@H](Cc2ccccc2)NC(=O)[C@H](CN)NC(=O)[C@H]([C@@H](C)O)NC1=O [U793, cyclo-((R)-3-hydroxy-11-methyldodecanoyl-L-DAPA-L-Leu-L-DABA-ABA-L-Thr-L-DAPA-D-Phe-L-Val-L-Asp)] ([Dap]L[Dab][X1]T[Dap][dF]VD; linker N-C via X3) | 4 µg/mL (≈ 3.5 µM) | 16 µg/mL (≈ 14 µM) | 4 µg/mL (≈ 3.5 µM) | >32 µg/mL | 8 µg/mL (≈ 7 µM) | >32 µg/mL | 9 µg/mL (≈ 7.87 µM) |  |  |  |  |  |  |  |
| C/C=C1/NC(=O)[C@H](CCN)NC(=O)[C@H](CC(C)C)NC(=O)[C@H](CC(N)=O)NC(=O)C[C@@H](CCCCCCCC(C)C)OC(=O)[C@H](CC(=O)O)NC(=O)[C@H](C(C)C)NC(=O)[C@@H](Cc2ccccc2)NC(=O)[C@H](CN)NC(=O)[C@H]([C@@H](C)O)NC1=O [U824, cyclo-((R)-3-hydroxy-11-methyldodecanoyl-L-Asn-L-Leu-L-DABA-ABA-L-Thr-L-DAPA-D-Phe-L-Val-L-Asp)] (NL[Dab][X1]T[Dap][dF]VD; linker N-C via X3) | 16 µg/mL (≈ 13.7 µM) | >32 µg/mL | 16 µg/mL (≈ 13.7 µM) | >32 µg/mL | >32 µg/mL | >32 µg/mL | 35 µg/mL (≈ 29.9 µM) |  |  |  |  |  |  |  |
| Table 2 cyclic lipodepsipeptide: R C7H15; DAPA-Leu-DABA-ABA-Thr-DAPA-Phe-OHVal-Asp [U744] |  |  |  |  |  |  |  | 16 µg/mL | 16 µg/mL | 16 µg/mL | 8 µg/mL | 16 µg/mL | >32 µg/mL | 72 µg/mL |
| Table 2 cyclic lipodepsipeptide: R C8H17; DAPA-Leu-DABA-ABA-Thr-DAPA-Phe-OHVal-Asp [U751] |  |  |  |  |  |  |  | 4 µg/mL | 4 µg/mL | 2 µg/mL | 4 µg/mL | 8 µg/mL | 16 µg/mL | 29 µg/mL |
| Table 2 cyclic lipodepsipeptide: R C8H17; DAPA-Leu-DABA-ABA-Thr-DAPA-Phe-OHVal-Asp [U754] |  |  |  |  |  |  |  | 2 µg/mL | 4 µg/mL | 4 µg/mL | 4 µg/mL | 8 µg/mL | 8 µg/mL | 20 µg/mL |
| Table 2 cyclic lipodepsipeptide: R C8H17; DAPA-Leu-DABA-ABA-Thr-DAPA-Phe-OHVal-Asp [U755a] |  |  |  |  |  |  |  | 8 µg/mL | 8 µg/mL | 8 µg/mL | 8 µg/mL | 8 µg/mL | 16 µg/mL | 39 µg/mL |
| Table 2 cyclic lipodepsipeptide: R C8H17; DAPA-Leu-DABA-ABA-Thr-DAPA-Phe-OHVal-Asp [U755b] |  |  |  |  |  |  |  | 2 µg/mL | 2 µg/mL | 8 µg/mL | 8 µg/mL | 4 µg/mL | 16 µg/mL | 34 µg/mL |
| Table 2 cyclic lipodepsipeptide: R C9H17; DAPA-Leu-DABA-ABA-Thr-Asn-Phe-Val-Asp [U826] |  |  |  |  |  |  |  | 8 µg/mL | 16 µg/mL | 8 µg/mL | >32 µg/mL | 16 µg/mL | 16 µg/mL | 23 µg/mL |
| Table 2 cyclic lipodepsipeptide: R C9H17; DAPA-Leu-DABA-ABA-Thr-DAPA-Phe-OHVal-Asp [U757] |  |  |  |  |  |  |  | 4 µg/mL | 8 µg/mL | 8 µg/mL | 8 µg/mL | 8 µg/mL | 16 µg/mL | 28 µg/mL |
| Table 2 cyclic lipodepsipeptide: R C9H17; DAPA-Leu-DABA-ABA-Thr-DAPA-Phe-Val-Asp [U771] |  |  |  |  |  |  |  | 1 µg/mL | 2 µg/mL | 1 µg/mL | 2 µg/mL | 2 µg/mL | 2 µg/mL | 9 µg/mL |
| Table 2 cyclic lipodepsipeptide: R C9H17; DAPA-Leu-DABA-ABA-Thr-DAPA-Phe-Val-Asp [U775] |  |  |  |  |  |  |  | 8 µg/mL | 4 µg/mL | 4 µg/mL | 16 µg/mL | 4 µg/mL | 16 µg/mL | 9 µg/mL |
| Table 2 cyclic lipodepsipeptide: R C10H21; Asn-Leu-DABA-ABA-Thr-DAPA-Phe-OHVal-Asp [U810] |  |  |  |  |  |  |  | 8 µg/mL | 8 µg/mL | 8 µg/mL | >32 µg/mL | >32 µg/mL | 16 µg/mL | 15 µg/mL |
| Table 2 cyclic lipodepsipeptide: R C10H21; Asn-Leu-DABA-ABA-Thr-DAPA-Phe-Val-Asp [U842] |  |  |  |  |  |  |  | 8 µg/mL | >32 µg/mL | 16 µg/mL | >32 µg/mL | 16 µg/mL | 8 µg/mL | 22 µg/mL |
| Table 2 cyclic lipodepsipeptide: R C10H21; DAPA-Leu-DABA-ABA-Thr-DAPA-Phe-Val-Asp [U800] |  |  |  |  |  |  |  | 8 µg/mL | 8 µg/mL | 8 µg/mL | >32 µg/mL | 16 µg/mL | 16 µg/mL | 12 µg/mL |
